Results as given in patent USRE41151E1, “Protected forms of pharmacologically active agents and uses thereof” (Medinox, Inc., priority 2000, dated 2010).

Columns and labels:
[1] = Plasma pharmacokinetics of naproxen after oral administration in rats; assay type: in vivo, rat; settings: 2 mg/kg (amount of naproxen in dose)
Experimental: The carotid artery of Sprague-Dawley rat (250-350 g, male) was catheterized at least one day before drug administration and flushed with 30% polyvinyl pyrrolidone (PVP) (400 U/mL of heparin) to maintain patency. […] After centrifugation (13,000 rpm, 10 min, 4° C.), the plasma samples were collected and analyzed in the same day.
Aliquot of plasma sample (100 μL) was mixed with 200 μL of acetonitrile. After vortexing and centrifugation (13,000 rpm, 10 min, 4° C.), 200 μL of supernatant was removed and added to 300 μL of a 58:42 mixture of 50 mM phosphate buffer (pH 5.0) and acetonitrile. Following vortexing and centrifugation, 25 μL of supernatant was removed and analyzed by HPLC with a UV detection system.
The average plasma concentration at each time point was calculated and utilized in a pharmacokinetic analysis. Non-compartmental pharmacokinetic analysis was carried out using WinNolin (Pharsight, Mountainview, Calif.) to calculate the maximum concentration (Cmax), time to maximum concentration (Tmax), area under the curve from zero to the last time point (AUClast), the area under the curve from zero to infinite time (AUCinf), and the terminal phase half life (Beta-t1/2).

Sprague-Dawley rats = assay: Rat carrageenan-induced hindlimb edema model, paw volume increase; assay type: in vivo; settings: for paw volume increase, 4 Hours / paw volume increase, 5 Hours: one hour before carrageenan
Experimental: Efficacy of NSAIDs in acute inflammation can be estimated by using intraplanar injection of carrageenan in the rat. Sprague-Dawley rats (200-250 g male) are injected intradermally in the footpad with 50 μl of a 1% carrageenan solution in PBS. Swelling of the injected paw is measured 3 & 4 hours later, using a plethysmometer.

For `COc1ccc2cc([C@H](C)C(=O)O)ccc2c1` [Naproxen], which AUFINF [1] is on record?
The AUFINF was 55 ± 7 μg * ht/mL.

What about the “paw volume increase, 4 Hours” value (Sprague-Dawley rats; naproxen 1 mg/kg oral) of the same compound?
The value was 0.63 ± 0.07.

And the “paw volume increase, 5 Hours” value (Sprague-Dawley rats; naproxen 1 mg/kg oral)?
Its value is 0.75 ± 0.08.

What about the “paw volume increase, 4 Hours” value (Sprague-Dawley rats; naproxen 10 mg/kg oral) of the same compound?
Its value is 0.32 ± 0.05.

And the “paw volume increase, 5 Hours” value (Sprague-Dawley rats; naproxen 10 mg/kg oral)?
The value was 0.39 ± 0.07.

What about the reduction in swelling (Sprague-Dawley rats; oral 10 mg/kg one hour before carrageenan, at both time points) of the same compound?
The reduction in swelling was “approximately 50%”.
